Results on one molecule are retold here after patent US20220211681A1, “COMPOSITIONS AND METHODS FOR PREVENTING INFLAMMATORY CONDITIONS” (Trustees of Tufts College, priority 2019, published 2022).

One test deals with colonic tumors. Briefly: Colonic tumorigenesis in HFD-fed, AOM-treated FVB mice. It counts as in vivo. An excerpt: Animals, diet and dosage information: The animal protocol was approved by the Institutional Animal Care and Use Committee of Tufts University (42015-155). Male FVB mice (4 weeks old) were obtained from the Jackson Laboratory (Bar Harbor, Me., USA), and were given free access to food (AIN-93G) and water for one week. The high-fat diet (HFD, D12450B) and low-fat diet (LFD, D12492) contained 60% and 10% of their calories as lard, respectively (Research Diets, diet details: Supplementary Tables 1, 2). […] One week after the sixth AOM injection, mice were randomized to receive 1 of 5 experimental diets: 1) LFD control, 2) […], 3) HFD containing 0.2% CUR (wt %), […], as pyridoxine HO), and 5) HFD containing both agents […]. There were 21 mice in each group. Body composition was determined by Echo-900 MRI (Houston, Tex., USA) at 21 weeks after arrival. All mice were sacrificed by isoflurane asphyxiation at 22 weeks after arrival. The liver and spleen were collected and weighed.
The dose of CUR (0.2 wt %) used in this study is equivalent to approximately 1 g/day for human dietary intake in a 60 kg adult based on equivalent surface area dosage conversion method^(30). The dose of B6 used is at 4-times the basal requirement (supplemented level) for mice. […] The colons were excised, opened longitudinally, rinsed with ice cold PBS containing protease and phosphatase inhibitors (pH 7.4) and carefully inspected under a dissection microscope. The number and size of tumors in the colons were recorded. The sizes of tumors were determined by the following formula: tumor volume (mm^3)=L×W×[(L+W)/2], where L is the length and W is the width of the tumors. Tumors and one 2-3 mm length piece of mid-colon from each mouse were fixed in 10% buffered formalin (pH 7.4) for 24 h for further histopathologic and immunohistochemical (IHC) analysis. The opened colon, spread out on a glass plate sitting atop crushed ice, was then gently scraped using glass microscope slides and the mucosa thus obtained was stored at −80° C. for future analyses. The pathology of the colonic tumors was characterized by a rodent histopathologist at the Harvard Rodent Histopathology Core (Boston, Mass., USA) who was blinded to the diet groups, and the tumors were graded as either non-neoplastic, adenomas or invasive cancers. The tumor data reported below includes only those confirmed to be either adenomas or cancers.
Statistical analyses: Data are presented as means±standard error (SE) for the indicated number of independently performed experiments. All statistical analyses were performed using SAS Version 9.3 (SAS Institute, Cary, N.C., USA). […] The tumor incidence was statistically calculated using the chi-square test. […]

For the next test, the system named is calprotectin. The test is described as follows: Fecal calprotectin by Mouse S100A8/S100A9 Heterodimer DuoSet ELISA. It counts as in vivo, FVB mice. To be noted: vs obese control. An excerpt: (§1) Frozen fecal samples obtained in the colon upon euthanasia and then measured by Mouse S100A8/S100A9 Heterodimer DuoSet ELISA according to manufacturer's instructions (R&D Systems, Minneapolis, Minn.) and normalized by protein concentrations. Data are shown as the mean±SE, Different superscript letters in the bar charts indicate significant differences (p<0.05) by one-way analysis of variance (ANOVA) with Tukey's test.
(§2) Determination of pro-inflammatory cytokines in plasma and calprotectin in feces: Plasma samples were then used for determination IL-1β, IL-6, and TNT-α concentrations by V-PLEX Proinflammatory Panel 1 (mouse) Kit on a chemiluminescence platform (MesoScale Discovery (MSD), Rockville, Md., USA) according to the manufacturer's instructions. For fecal calprotectin measures, frozen fecal samples obtained in the colon upon euthanasia were lysed in ice-cold PBS containing 1% BSA, 0.05% Tween20 and protease inhibitor. Protein concentrations were determined using the BCA method. Fecal calprotectin levels were measured by Mouse S100A8/S100A9 Heterodimer DuoSet ELISA according to manufacturer's instructions (R&D Systems, Minneapolis, Minn.) and normalized by protein concentrations.
In general terms: In an ELISA, binding on a coated surface is turned into a signal by an enzyme label.

The subject of the next test is β-catenin. The test is described as follows: Western blot of nuclear β-catenin in colonic mucosa (Wnt signaling). It counts as in vivo, FVB mice. The note with it: colonic mucosa nuclear fraction, p<0.03. An excerpt: (§3) Each lane contained colonic mucosa collected from two individual mice that were pooled for immunoblot analysis (n=6). Data are representative of two independent experiments. Band intensity was normalized to Lamin B1 (nuclear fraction) or β-actin (whole tissue lysate) and measured by Quantity One 1-D Analysis Software (Bio-Rad). Data are shown as the mean±SE. Multiple comparisons with Hochberg method were employed to control the False Discovery Rate. Different superscript letters in the bar charts indicate significant differences (p<0.05) by one-way analysis of variance (ANOVA) with Tukey's test.
(§4) Western blot analyses: The nuclear and cytoplasmic fractions were prepared using the Nuclear Extraction Kit (Abeam) according to the manufacturer's instructions and subjected to Western blot analysis. Protein concentrations were determined using the BCA method. Briefly, equal amount of proteins (50 μg) were resolved over 4-12% SDS-polyacrylamide gel electrophoresis and transferred to nitrocellulose membranes. […] Band intensity was normalized to Lamin B1 (nuclear fraction) and measured by Quantity One 1-D Analysis Software (Bio-Rad, Hercules, Calif., USA).

Another test deals with IL-6. The test is described as follows: Plasma IL-6 by V-PLEX Proinflammatory Panel 1 (mouse) Kit. It counts as in vivo, FVB mice. To be noted: vs obese control; combination p=0.07.
From the text: as §1, §2

The test system of the next test is PI3K. Briefly: Western blot of p-PI3K/PI3K in colonic mucosa. The test is classed as in vivo, FVB mice.
From the text: as §3, §4

For the molecule `Cc1ncc(CO)c(CO)c1O.Cl` [B6, pyridoxine hydrochloride], the Tumor incidence in the test with colonic tumors (HFD-fed, AOM-treated FVB mice, agent in diet) is given as 59%. Moreover, the “Tumor multiplicity (Tumors per mouse)” value in the test with colonic tumors (HFD-fed, AOM-treated FVB mice, agent in diet (CUR 0.2% w/w, B6 24 mg/kg), mean ± SE) is listed as 0.95 ± 0.22^ab. Further, in the test with colonic tumors (HFD-fed, AOM-treated FVB mice, agent in diet, mean ± SE), the “Tumor burden (Total volume of tumors per mouse, mm^3)” value is 17.19 ± 7.38^ab mm^3. Moreover, the “Suppression of colorectal tumorigenesis (in words)” value in the test on colonic tumors (vs HFD obese control) was “neither CUR nor B6 alone was sufficient to suppress colorectal tumorigenesis”. Also, the “Suppression of fecal calprotectin (in words)” value with calprotectin is given as “did not cause a significant suppression”. For the same molecule, in the test with β-catenin, the “Level of nuclear β-catenin in comparison to the obese control (in words)” value is “reduced level of nuclear β-catenin”. Moreover, in the test on IL-6, the “Plasma IL-6 level (in words)” value is given as “non-significant reduction”. Besides, the “Suppression of PI3K activation (in words)” value in the test on PI3K is recorded as “did not cause a significant suppression”.
